Reference: PMC8621857, “Structural Insights into the Azole Resistance of the Candida albicans Darlington Strain Using Saccharomyces cerevisiae Lanosterol 14α-Demethylase as a Surrogate” (Journal of Fungi, 2021)
pKd: −log10 of the molar value.

Experiments:
[1] = system: S. cerevisiae strain AD3Δ ScErg11 Y140H expressing ScLDM6×His Y140H; experiment: Broth microdilution drug susceptibility assay (MIC80), strain AD3Δ ScErg11 Y140H; format: cell-based, Saccharomyces cerevisiae; settings: for MIC80: Saccharomyces cerevisiae, 48 h, 30 °C, pH 6.8, mean (± SEM), n = 3; for MIC80 / MIC80/Relative Amount of ScLDM6×His / fold-resistance based on the relative amount of recombinant enzyme compared with strain AD3Δ: strain Y140H; for MIC80/Relative Amount of ScLDM6×His / fold-resistance based on the relative amount of recombinant enzyme compared with strain AD3Δ: relative expression 0.74
Method: (§1) The native ScERG11 gene in yeast cells containing mutant ScERG11-6×His constructs in the PDR5 locus was disrupted by homologous recombination with a cassette encoding the His1 selection marker and sequences homologous with the regions bordering the endogenous ScERG11 ORF to create strains AD3Δ ScErg11 Y140H, AD3Δ ScErg11 I471T and AD3Δ ScErg11Y140H I471T [43]. Transformants were selected on SD-His agar plates incubated at 30 °C for 48–72 h. Genomic DNA was extracted, and DNA sequencing as above was used to confirm deletion of the native ERG11. Strain AD3Δ ScErg11 (denoted as AD3Δ), which overexpresses wild-type ScLDM6×His from the PDR5 locus and has the native ScERG11 gene disrupted, was used as a control strain [43].
(§2) Azole susceptibility was measured as the mean drug concentration required to inhibit 80% of yeast growth (MIC80) compared to a non-drug control, using a standard broth microdilution assay. Serial dilutions of short- (FLC and VCZ), medium- (VT-1161), and long-tailed (ITC and PCZ) azole drugs, and the control drugs micafungin (MCF) and amphotericin B (AMB), were prepared in a 96-well microtiter plate in complete synthetic media lacking uracil, buffered to pH 6.8 [34]. Control and test cells were seeded at an optical density of 600 nm (OD600) of 0.005 (~1.5 × 10^4 colony forming units). After incubation for 48 h at 30 °C with constant agitation (200 rpm), the OD600 nm of each well was measured using a Synergy 2 multi-mode plate reader (BioTek Instruments, Winooski, VT, USA). The experiment was repeated three times (a total of nine measurements for the response of each strain to each drug). GraphPad Prism 5.0 software was used for statistical analysis, using a one-way analysis of variance with a Bonferroni post-hoc test. The statistical significance of comparisons was accepted when p < 0.05.

[2] = system: S. cerevisiae strain AD2Δ (native wild-type ScLDM); experiment: Broth microdilution drug susceptibility assay (MIC80), host strain AD2Δ; format: cell-based; settings: Saccharomyces cerevisiae; strain AD2Δ; 48 h, 30 °C, pH 6.8; mean (± SEM), n = 3; read-out: MIC80
Method: Yeast strains used in this study (Supplementary Table S1) were prepared using the AD2Δ strain of S. cerevisiae as a host, using an established protocol. AD2Δ is hypersensitive to xenobiotics due to the deletion of seven major ABC transporters, including those responsible for the efflux of azole drugs. It is also deleted of the PDR3 transcriptional regulator, but contains the gain-of-function Pdr1-3 transcriptional regulator mutation that leads to constitutive overexpression from the PDR5 locus.
as §2

[3] = system: C. albicans strain SC5314; experiment: Agarose disk diffusion assay, control strain SC5314; format: cell-based, Candida albicans; settings: for effect of Mdr1 inhibitor MCC1189 on azole susceptibility: SC5314, MCC1189 at 6 µM in the assay medium; for effect of Cdr1p inhibitor RC21v3 on azole susceptibility: SC5314, RC21v3 at 6 µM in the assay medium
Method: (§3) Agarose diffusion assays were carried out as described previously using the Darlington strain of C. albicans (Pfizer Ltd., Sandwich, UK) and the control C. albicans database strain SC5314, which is not resistant to azoles. The Cdr1p-specific inhibitor RC21v3 and the CaMdr1p-specific inhibitor MCC1189 (MicroCombiChem, Wiesbaden, Germany), included in the assay medium at 6 µM, were used to investigate the contribution of efflux pumps to azole resistance in the Darlington strain [49, 50, 51].

[4] = system: S. cerevisiae strain AD3Δ ScErg11 (AD3Δ) overexpressing wild-type ScLDM6×His; experiment: Broth microdilution drug susceptibility assay (MIC80), strain AD3Δ ScErg11; format: cell-based, Saccharomyces cerevisiae; settings: strain AD3Δ; for MIC80: Saccharomyces cerevisiae, 48 h, 30 °C, pH 6.8, mean (± SEM), n = 3, read-out: MIC80; for MIC80/Relative Amount of ScLDM6×His: relative expression 1
Method: as §1, §2

[5] = system: S. cerevisiae strain AD3Δ ScErg11 Y140H I471T expressing ScLDM6×His Y140H I471T; experiment: Broth microdilution drug susceptibility assay (MIC80), strain AD3Δ ScErg11 Y140H I471T; format: cell-based, Saccharomyces cerevisiae; settings: for MIC: Saccharomyces cerevisiae, strain Y140H + I471T, 48 h, 30 °C, pH 6.8, mean (± SEM), n = 3; for resistance conferred, relative expression taken into account: ScLDM6×His Y140H I471T (0.41 of wild-type) vs AD3Δ; for MIC80/Relative Amount of ScLDM6×His / fold-resistance based on the relative amount of recombinant enzyme compared with strain AD3Δ: strain Y140H+I471T, relative expression 0.41
Method: as §1, §2

[6] = system: C. albicans Darlington strain; experiment: Agarose disk diffusion assay, Darlington strain; format: cell-based, Candida albicans; settings: for effect of Mdr1 inhibitor MCC1189 on azole susceptibility: MCC1189 at 6 µM in the assay medium; for effect of Cdr1p inhibitor RC21v3 on azole susceptibility: RC21v3 at 6 µM in the assay medium; for agarose diffusion susceptibility: no efflux pump inhibitor
Method: as §3

[7] = biological target: wild-type and Y140F/H mutants of ScLDM6×His; parameters: method as in earlier work; settings: no significant differences, ref 5 (supplement; Sagatova et al. 2016); cited from earlier work
[8] = system: S. cerevisiae strain AD3Δ ScErg11 I471T expressing ScLDM6×His I471T; experiment: Broth microdilution drug susceptibility assay (MIC80), strain AD3Δ ScErg11 I471T; format: cell-based, Saccharomyces cerevisiae; settings: for MIC80: Saccharomyces cerevisiae, 48 h, 30 °C, pH 6.8, mean (± SEM), n = 3; for MIC80 / MIC80/Relative Amount of ScLDM6×His / fold-resistance based on the relative amount of recombinant enzyme compared with strain AD3Δ: strain I471T; for increased susceptibility compared with AD3Δ: strain AD3Δ ScErg11 I471T, not corrected for expression; for MIC80/Relative Amount of ScLDM6×His / fold-resistance based on the relative amount of recombinant enzyme compared with strain AD3Δ: relative expression 0.51
Method: as §1, §2

[9] = system: Phakopspora pachyrhizi SDM Y131F I475T isolates; parameters: method as in PMID 23589453; settings: isolates from soybean plants in Brazil; cited from earlier work

| Structure (SMILES) | MIC80 [1] | MIC80/Relative Amount of ScLDM6×His [1] | fold-resistance based on the relative amount of recombinant enzyme compared with strain AD3Δ [1] | MIC80 [2] | effect of Mdr1 inhibitor MCC1189 on azole susceptibility [3] | effect of Cdr1p inhibitor RC21v3 on azole susceptibility [3] | MIC80 [4] | MIC80/Relative Amount of ScLDM6×His [4] | MIC [5] | resistance conferred, relative expression taken into account [5] | MIC80/Relative Amount of ScLDM6×His [5] | fold-resistance based on the relative amount of recombinant enzyme compared with strain AD3Δ [5] | effect of Mdr1 inhibitor MCC1189 on azole susceptibility [6] | effect of Cdr1p inhibitor RC21v3 on azole susceptibility [6] | agarose diffusion susceptibility [6] | MIC80 [8] | increased susceptibility compared with AD3Δ [8] | MIC80/Relative Amount of ScLDM6×His [8] | fold-resistance based on the relative amount of recombinant enzyme compared with strain AD3Δ [8] | resistance conferred by the double mutation Y131F I475T [9] | also measured |
| --- | --- | --- | --- | --- | --- | --- | --- | --- | --- | --- | --- | --- | --- | --- | --- | --- | --- | --- | --- | --- | --- |
| CC[C@@H]([C@H](C)O)n1ncn(-c2ccc(N3CCN(c4ccc(OC[C@@H]5CO[C@@](Cn6cncn6)(c6ccc(F)cc6F)C5)cc4)CC3)cc2)c1=O [PCZ, Posaconazole] | 0.33 µM | 0.445 µM | 1.1 × | 0.16 µM | no effect on susceptibility | increased susceptibility | 0.423 µM | 0.423 µM | 0.265 µM | 1.5 fold | 0.646 µM | 1.5 × | no effect on susceptibility | increased susceptibility | resistant | 0.27 µM | 1.6 fold | 0.527 µM | 1.3 × |  | susceptibility compared with AD3Δ cells ([1]; cells overexpressing ScLDM6×His Y140H, not corrected for expression): slightly increased susceptibility; pKd [7]: ~6.30 |
| O[C@@](Cn1cnnn1)(c1ccc(F)cc1F)C(F)(F)c1ccc(-c2ccc(OCC(F)(F)F)cc2)cn1 [VT-1161] | 0.116 µM | 0.157 µM | 2.1 × | 0.0288 µM | did not alter the susceptibility | did not alter the susceptibility | 0.0754 µM | 0.0754 µM | 0.0676 µM | 2.2 fold | 0.165 µM | 2.2 × | did not alter the susceptibility | did not alter the susceptibility | resistant | 0.0346 µM | 2.2 fold | 0.0679 µM | 0.90 × |  | resistance conferred, relative amount of recombinant ScLDM6×His taken into account ([1]; ScLDM6×His Y140H vs AD3Δ): 2.1 fold; resistance of cells containing the Y140H mutation in ScLDM6×His ([1]; discussion, significant but modest): 2 fold; MIC80 higher than strain AD3Δ ScErg11 ([1]; strain AD3Δ ScErg11 Y140H vs AD3Δ, not corrected for expression, p < 0.001): 1.5 fold; agarose diffusion susceptibility ([3]; SC5314, no efflux pump inhibitor): susceptible |
| CC(C1CC1)C(O)(Cn1cncn1)c1ccc(Cl)cc1 (centres unmarked) [cyproconazole] |  |  |  |  |  |  |  |  |  |  |  |  |  |  |  |  |  |  |  | ~ 100 fold |  |
| CC1(C)CCC(Cc2ccc(Cl)cc2)C1(O)Cn1cncn1 (centres unmarked) [metconazole] |  |  |  |  |  |  |  |  |  |  |  |  |  |  |  |  |  |  |  | ~ 100 fold |  |
| CC(C)(C)C(O)(CCc1ccc(Cl)cc1)Cn1cncn1 (centres unmarked) [tebuconazole] |  |  |  |  |  |  |  |  |  |  |  |  |  |  |  |  |  |  |  | ~ 100 fold |  |
